Columns and labels:
[1] = Inhibition of PDGFR cytoplasmic domain (unknown origin) in presence of ATP; set-up: species or system Homo sapiens
[2] = target: Proto-oncogene tyrosine-protein kinase Src (Homo sapiens, UniProt P12931); experiment: Inhibition of c-SRC (unknown origin) in presence of ATP
[3] = target: Dual specificity mitogen-activated protein kinase kinase; MEK1/2 (Homo sapiens, UniProt P36507+Q02750); experiment: Inhibition of MEK (unknown origin) in presence of ATP; type: protein assay
[4] = Inhibition of PKCalpha/beta/gamma isotype mixtures (unknown origin) in presence of ATP; set-up: species or system Homo sapiens
[5] = target: Fibroblast growth factor receptor 1 (Mus musculus, UniProt P16092); experiment: Inhibition of FGFR1 autophosphorylation in mouse NIH/3T3 cells assessed as reduction in aFGF and heparin-induced autophosphorylation incubated for 5 mins before stimulation for 5 mins with aFGF and heparin by SDS-PAGE and immunoblot method; type: cell-based
Fibroblast growth factor receptor 1, sequence (P16092 whole entry): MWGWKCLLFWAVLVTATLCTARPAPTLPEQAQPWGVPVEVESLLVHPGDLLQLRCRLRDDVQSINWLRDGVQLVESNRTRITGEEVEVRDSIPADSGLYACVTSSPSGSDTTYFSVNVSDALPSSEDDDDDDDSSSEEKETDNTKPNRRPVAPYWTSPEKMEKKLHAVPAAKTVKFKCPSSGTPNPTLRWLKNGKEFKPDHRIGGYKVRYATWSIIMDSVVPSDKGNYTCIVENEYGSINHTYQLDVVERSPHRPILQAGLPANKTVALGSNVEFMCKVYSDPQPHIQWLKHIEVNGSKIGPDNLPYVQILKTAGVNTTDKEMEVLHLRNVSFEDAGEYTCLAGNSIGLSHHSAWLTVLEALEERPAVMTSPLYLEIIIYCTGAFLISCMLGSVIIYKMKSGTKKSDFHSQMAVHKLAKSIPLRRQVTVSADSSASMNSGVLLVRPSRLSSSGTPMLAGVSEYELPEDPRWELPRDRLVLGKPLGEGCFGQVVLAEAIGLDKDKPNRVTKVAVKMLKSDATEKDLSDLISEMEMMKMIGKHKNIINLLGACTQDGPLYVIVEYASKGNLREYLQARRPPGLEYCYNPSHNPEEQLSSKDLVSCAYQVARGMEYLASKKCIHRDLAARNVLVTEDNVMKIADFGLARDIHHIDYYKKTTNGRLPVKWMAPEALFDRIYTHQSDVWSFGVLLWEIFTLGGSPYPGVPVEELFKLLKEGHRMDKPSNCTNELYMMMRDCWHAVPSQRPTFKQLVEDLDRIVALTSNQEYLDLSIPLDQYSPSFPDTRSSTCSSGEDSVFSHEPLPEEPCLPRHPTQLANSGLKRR

[6] = Inhibition of VEGFR2 (unknown origin) expressed in mouse NIH/3T3 cells assessed as reduction in aFGF and heparin-induced autophosphorylation incubated for 5 mins before stimulation for 5 mins with aFGF and heparin by SDS-PAGE and immunoblot method; type: cell-based; conditions: NIH3T3
Mus musculus [7] = experiment: Inhibition of FGF-induced neovascularization in Swiss Webster mouse angiogenesis model at 1 mg/kg, ip starting 3 days prior to or on the day of pellet implantation and then daily until day 5 post-implantation by Corneal neovascularization assay; type: functional; conditions: 192 h, time 8 day
Mus musculus [8] = experiment: Inhibition of VEGF-induced neovascularization in Swiss Webster mouse angiogenesis model at 2 mg/kg, ip starting 3 days prior to or on the day of pellet implantation and then daily until day 5 post-implantation by Corneal neovascularization assay; type: functional; conditions: 192 h, time 8 day
[9] = Toxicity in bFGF-induced Swiss Webster mouse angiogenesis model at 1 mg/kg, ip starting 3 days prior to or on the day of pellet implantation and then daily until day 5 post-implantation by Corneal neovascularization assay; type: organism-based; conditions: in vivo, 192 h, time 8 day

Proto-oncogene tyrosine-protein kinase Src, sequence (P12931 2-536 limits assumed): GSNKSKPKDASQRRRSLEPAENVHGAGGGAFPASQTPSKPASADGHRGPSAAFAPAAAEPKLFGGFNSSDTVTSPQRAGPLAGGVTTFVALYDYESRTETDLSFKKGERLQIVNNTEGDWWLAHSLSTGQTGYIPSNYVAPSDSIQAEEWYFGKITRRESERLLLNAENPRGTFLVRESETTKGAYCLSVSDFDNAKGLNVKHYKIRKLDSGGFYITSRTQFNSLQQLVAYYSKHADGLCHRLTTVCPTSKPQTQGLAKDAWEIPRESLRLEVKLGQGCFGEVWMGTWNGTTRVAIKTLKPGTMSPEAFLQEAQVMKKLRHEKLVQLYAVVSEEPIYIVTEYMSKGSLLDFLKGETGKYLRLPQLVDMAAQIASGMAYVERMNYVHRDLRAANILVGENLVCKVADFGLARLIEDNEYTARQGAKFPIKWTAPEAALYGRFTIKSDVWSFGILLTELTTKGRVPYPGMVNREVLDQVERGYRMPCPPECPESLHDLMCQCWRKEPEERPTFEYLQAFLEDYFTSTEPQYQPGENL

Question: Which IC50 [1] does the source give for CCN(CC)CCCCNc1ncc2cc(-c3cc(OC)cc(OC)c3)c(NC(=O)NC(C)(C)C)nc2n1 [PD-173074] here?
Answer: The IC50 was 17.6 µM.

Question: And the IC50 [2]?
Answer: The IC50 was 19.8 µM.

Question: And the IC50 [3]?
Answer: The IC50 was greater than 50 µM.

Question: What about the IC50 [4] of the same molecule?
Answer: Its IC50 is greater than 50 µM.

Question: And the IC50 [5]?
Answer: The IC50 was 0.001 µM.

Question: What about the IC50 [6] of the same molecule?
Answer: The IC50 was 0.1 µM.

Question: And the inhibition in vivo at 1 mg/kg (Mus musculus [7])?
Answer: Its inhibition in vivo at 1 mg/kg is 86%.

Question: And the inhibition in vivo at 2 mg/kg (Mus musculus [8])?
Answer: The inhibition in vivo at 2 mg/kg was 81%.

Question: And the Activity [9]?
Answer: The Activity was “Non-Toxic”.

— ChEMBL document CHEMBL5647700, “Crystal structure of an angiogenesis inhibitor bound to the FGF receptor tyrosine kinase domain” (EMBO J, 1998)
